In US5215738A, “Benzamide and nicotinamide radiosensitizers” (SRI International, priority 1990, dated 1993):
Where a name gives a salt, the structure may show the parent alone.

Legend:
[1] = Cytotoxicity test (% cell survival, hypoxic cells); assay type: cell-based, Chinese hamster; conditions: hamster, cho ha-1 cells, 10 mM, 22° C., hypoxia
Description: (§1) Cytotoxicity tests were also carried out on some of the compounds. The test procedure was as follows: Log-phase Chinese hamster ovary HA-1 cells were trypsinized (0.5% trypsin in Hank's buffered salt solution (HBSS)) and plated in 60 mm Permanox petri dishes in concentrations necessary to yield approximately 30 colonies after experimental treatment. The cells were allowed to attach overnight. Then the medium was removed from each dish and replaced with 2 ml of medium containing varying concentrations of the test compound. The petri dishes were then placed in nylon chamber fitted with gassing ports and, to achieve hypoxia, were gassed at room temperature with humidified N2 containing 5% CO2 ' for 1 hr at a rate of 1 l/min. The cells are then exposed to 10 mM of the test compound for 1 hr at 22° C. The % cell survival is read after such treatment.

EMT6 tumors = assay: In vivo assay for radiosensitization activity (EMT6 tumors in BALB/c mice); parameters: species or system female BALB/c mice; key: 0: No radiosensitization; 1: Minimal radiosensitization (some radiosensitization relative to controls but lowest survival>3×lowest survival with MIS); 2: Moderate radiosensitization (not good as MIS, but lowest surviving fraction<3×lowest surviving fraction with MIS); 3: Good radiosensitization (equal to MIS); 4: Excellent radiosensitization (superior to MIS); conditions: score 0 to 4 compared with MIS, 5 mmol/kg or 2/3 of the LD50, 2,000 rad
Description: In Vivo Assay for Radiosensitization Activity
The compounds of the invention are tested in vivo for radiosensitization activity by the assay of Brown, J. M. Radiation Res (1975) 64:633-47, incorporated herein by reference. For this assay EMT6 tumors in female BALB/c mice weighing 20-25 g are used. These mice are bred under specific pathogen-free conditions and are 3-4 months old at the beginning of each experiment. The EMT6 tumor is grown intradermally in the flank from an inoculation of 2×10^5 tumor cells taken from the 2nd-8th in vitro passage of the tumor cells since removal from the previous in vivo tumor. Two tumors per mouse are implanted, and are used as subject tumors when they reach a volume of approximately […]. At this point the tumors contain approximately 20% hypoxic cells.
Test compounds are compared against MIS in this assay. The test compound is tested at a fixed injected dose of either 5 mmol/kg or 2/3 of the LD50 (whichever is lower), MIS is injected into controls at the same dose. Additional suitable controls of test compound-injected but nonirradiated and saline-injected and irradiated mice are also included. A fixed radiation dose of 2,000 rad is applied at variable intervals of 5 min to 2 hr between injection and irradiation. Typically, irradiation is applied at 5, 10, 15, 20, 30, 45, 60, 90, and 120 min following intraperitoneal administration of both drugs. By using these intervals, the results give an indication of both the optimum time to irradiate and of how the test compound sensitizes in relationship to MIS.
Irradiation of the EMT6 tumors is done by irradiating nonanesthetized tumor-bearing mice in a Plexiglas box. Irradiation conditions are 250 kVp X-rays, 15 mA, FSC 33 cm, added filtration of 0.35 mm Cu, half value layer 1.3 mm Cu, and a dose rate of 317 rad/min.
Radiosensitization activity is judged by survival rate of dissected and cultured tumor cells as follows: The tumor-bearing mice are killed immediately after irradiation, and tumors dissected from the skin, cut into several pieces, and made into a fine brei by high-speed chopping with a razor blade attached to a jigsaw. The brei is added to 30 ml of Hank's buffered salt solution (HBSS) containing 0.02% DNase, 0.05% promase, and 0.02% collagenase. The suspension is stirred for 30 min at 37° C., filtered, and centrifuged at 1,600 rmp for 10 min at 4° C. The cell pellet is resuspended in complete Waymouth's medium plus 12-1/2% horse serum plus 2-12% fetal calf serum (FCS) and an aliquot mixed with trypan blue and counted with the use of a hemacytometer. […] After incubation for 13 days, the colonies are fixed and stained, and those containing 50 cells or more are counted. […]
The test compound is scored on the scale of 0 to 4 based on how it compares with MIS. […]

[2] = tested on: Chinese hamster ovary HA-1 cells; assay: Cytotoxicity test (% cell survival, hypoxic cells); assay type: cell-based; conditions: 10 mM, 1 hr, 22° C., hypoxia, CHO HA-1 cells; 60 min, 10000 µM
Description: as §1

Water solubility = assay type: physicochemical
Chinese hamster cells = conditions: added during or after irradiation; non-hypoxic cells; cited from earlier work
[3] = tested on: normal cells (tail growth) and tumor cells; conditions: nicotinamide administered prior to irradiating; cited from earlier work

Row | Structure (SMILES) | viability at 1 h, 10000 µM [1] | Radiosensitization (EMT6 tumors) | other results
1 | NC(=O)c1cccc(OCCO)c1 [3-(2-hydroxyethoxy)benzamide] | 89% | 3 | 
2 | COCCNc1cncc(C(N)=O)c1 [3-(2-methoxyethylamino)nicotinamide, 3-(2-methoxyethylamino) nicotinamide] |  | 3 | 
3 | NC(=O)c1cccc(O)c1 [3-hydroxybenzamide] | 90% | 3 | Cytotoxicity % Cell Survival [2]: 77%
4 | NC(=O)c1cncc(O)c1 [5-hydroxynicotinamide sodium salt, 5-hydroxynicotinamide] |  |  | water solubility (Water solubility): very water soluble
5 | NC(=O)c1cccc(N)c1 [m-aminobenzamide] |  |  | sensitization to lethal effects of radiation (Chinese hamster cells): found to sensitize these cells to the lethal effects of radiation
6 | NC(=O)c1cccnc1 [nicotinamide] |  | 3 | enhancement ratio, normal vs tumor cells [3]: greater for normal cells in vivo than that exhibited for tumor cells
